According to ChEMBL document CHEMBL5236595, “JDQ443, a Structurally Novel, Pyrazole-Based, Covalent Inhibitor of KRASG12C for the Treatment of Solid Tumors” (J Med Chem, 2022):
pIC50: −log10 of the molar value. In brackets after ≈: the same amount, converted by molar mass.

What was measured:
[1] = target: GTPase KRas (Homo sapiens, UniProt P01116, G12C); assay: Inhibition of KRAS G12C mutant in human NCI-H358 cells assessed as reduction in ERK phosphorylation incubated for 6 hrs by MSD assay; format: cell-based
[2] = system: GTPase KRas (Homo sapiens), P01116 [G12C]; assay: In vivo target occupancy at KRAS G12C mutant in human MIA PaCa-2 cells xenografted mouse assessed as decrease in […] expression at 30 mg/kg, po after 24 hrs; format: functional, organism-based
[3] = Aqueous solubility of compound in pH 6.8; format: physicochemical; conditions: aqueous medium
[4] = AUC in human MIA PaCa-2 cells xenografted mouse at 30 mg/kg, po; format: ADME, organism-based; set-up: dose 30 mg/kg, route po; conditions: in vivo
[5] = Apparent permeability across apical to basolateral side in MDCK-MDR1 cells at 10 uM after 2 hrs by LC-MS/MS analysis; format: ADME, cell-based, Canis lupus familiaris; conditions: dog
[6] = system: GTPase KRas (Homo sapiens), P01116 [G12C]; assay: In vivo target occupancy at KRAS G12C mutant in human MIA PaCa-2 cells xenografted mouse assessed as decrease in free KRAS G12C level at 30 mg/kg, po after 24 hrs; format: functional, organism-based
[7] = Cmax in human MIA PaCa-2 cells xenografted mouse at 30 mg/kg, po; format: ADME, organism-based; set-up: dose 30 mg/kg, route po; conditions: in vivo
[8] = Lipophilicity, logD of compound at pH 7.4; format: physicochemical; conditions: buffer
[9] = system: GTPase KRas (Homo sapiens), P01116 [G12C]; assay: In vivo target occupancy at KRAS G12C mutant in human MIA PaCa-2 cells xenografted mouse assessed as decrease in […] expression at 30 mg/kg, po after 6 hrs; format: functional, organism-based
[10] = system: GTPase KRas (Homo sapiens), P01116 [G12C]; assay: Displacement of [acrylamide-2,3-3H2]-N-(3-fluoro-4-(2-methyl-3-(5-methyl-1H- indazole-4-yl)-1H-pyrrolo[ 2,3-b]pyridin-1-yl)-phenyl from KRAS G12C mutant (unknown origin) assessed as ratio of Kinact/Ki by competitive scintillation proximity assay
[11] = system: GTPase KRas (Homo sapiens), P01116 [G12C]; assay: In vivo target occupancy at KRAS G12C mutant in human MIA PaCa-2 cells xenografted mouse assessed as decrease in free KRAS G12C level at 30 mg/kg, po after 6 hrs; format: functional, organism-based
[12] = Cysteine reactivity in pH 7.4 phosphate buffer assessed as compound half life at 2 uM in presence of GSH
[13] = Aqueous solubility of compound in pH 4; format: physicochemical; conditions: aqueous medium

Compound	pIC50 [1]	Papp A→B at 2 h, 10 µM [5] [×10⁻⁶ cm/s]	logD [8]	Ratio [10] [mM⁻¹ s⁻¹]	further results
C=CC(=O)N1CC2(CC(n3nc(-c4ccc5nn(CCOC)cc5c4)c(-c4c(Cl)c(C)cc5[nH]ncc45)c3C)C2)C1	8.40	5.4	4.2	225	Occ [2]: 59%; solubility [3]: 30 µM (≈ 17.1 µg/mL); AUC [4]: 7.3 µM·h; Occ [6]: 78%; Cmax [7]: 4300 nM; Occ [9]: 45%; Occ [11]: 37%
C=CC(=O)Nc1ccc(-n2nc(C(C)C)c(-c3c(C)ccc4[nH]ncc34)c2C)c(C)c1	5.82			1.7	T1/2 [12]: 107 min
C=CC(=O)Nc1ccc(-c2nn(C(C)C)c(-c3c(C)ccc4[nH]ncc34)c2C)c(F)c1				0.2	T1/2 [12]: 57 min
C=CC(=O)N1CC2(CC(n3nc(-c4cccnc4)c(-c4c(Cl)ccc5[nH]ncc45)c3C)C2)C1	6.30			1.3	
C=CC(=O)N1CC2(CC(n3nc(-c4cccnc4)c(-c4c(Cl)c(C)cc5[nH]ncc45)c3C)C2)C1	7.05			10	
C=CC(=O)N1CC2(CC(n3nc(C(C)C)c(-c4c(C)ccc5[nH]ncc45)c3C)C2)C1	5.41			0.4	
C=CC(=O)N1CC2(CC(n3nc(-c4ccc5cn[nH]c5c4)c(-c4c(Cl)c(C)cc5[nH]ncc45)c3C)C2)C1	7.30			19	
C=CC(=O)N1CC2(CC(n3nc(-c4ccc5c(cnn5CCN(C)C)c4)c(-c4c(Cl)c(C)cc5[nH]ncc45)c3C)C2)C1	7.52	0.9	3.7	150	AUC [4]: 0.5 µM·h; Cmax [7]: 300 nM; solubility [13]: 850 µM (≈ 496 µg/mL)
C=CC(=O)N1CC2(CC(n3nc(-c4ccc5nn(CCN6CCOCC6)cc5c4)c(-c4c(Cl)c(C)cc5[nH]ncc45)c3C)C2)C1	8.00	2.8	4.2	190	solubility [3]: 30 µM (≈ 18.8 µg/mL); solubility [13]: > 1000 µM
C=CC(=O)N1CC2(CC(n3nc(-c4cccnc4)c(-c4c(Cl)c(C)cc5[nH]ncc45)c3CC#N)C2)C1				0.2	
C=CC(=O)Nc1ccc(-n2nc(C(C)C)c(-c3c(C)ccc4[nH]ncc34)c2C)c(F)c1	6.30			6	T1/2 [12]: 20 min
C=CC(=O)N1CC2(CC(n3nc(-c4ccc5[nH]ncc5c4)c(-c4c(Cl)c(C)cc5[nH]ncc45)c3C)C2)C1	7.70	0.6	4.6	116	solubility [3]: 10 µM (≈ 5.12 µg/mL)
